In ChEMBL document CHEMBL5584305, “Cladoic Acid, an Anti-Trypanosoma cruzi Polyketide from Cladosporium sp. TP-F2020” (J Nat Prod, 2024) one finds Activity and IC50 data, which are given here for one molecule.

In one series the test system is Kocuria rhizophila. Briefly: Antimicrobial activity against Kocuria rhizophila ATCC 9341 at 100 microg/ml incubated for 20 hrs by liquid microculture method. The series is classed as functional, organism-based. The note with it: dose 100.0 µg/ml.
The next series has as its system Staphylococcus aureus. Briefly: Antimicrobial activity against Staphylococcus aureus FDA209P JC-1 at 100 microg/ml incubated for 20 hrs by liquid microculture method. It is filed as functional, organism-based. The note with it: dose 100.0 µg/ml.
Another series deals with Escherichia coli. The experiment in a line: Antimicrobial activity against Escherichia coli NIHJ JC-2 at 100 microg/ml incubated for 20 hrs by liquid microculture method. The note with it: dose 100.0 µg/ml. It is filed as functional, organism-based.
The test system of series [1] is Agrobacterium radiobacter. The experiment in a line: Antimicrobial activity against Rhizobium radiobacter NBRC14554 at 100 microg/ml incubated for 20 hrs by liquid microculture method. It is filed as functional, organism-based. The note with it: dose 100.0 µg/ml.
The next series deals with Candida albicans. The experiment in a line: Antimicrobial activity against Candida albicans NBRC0197 at 100 microg/ml incubated for 20 hrs by liquid microculture method. The series is classed as functional, organism-based. The following applies: dose 100.0 µg/ml.
The subject of series [2] is Colletotrichum gloeosporioides. Briefly: Antimicrobial activity against Glomerella cingulata NBRC5907 at 100 microg/ml incubated for 20 hrs by liquid microculture method. The series is classed as functional, organism-based. The following applies: dose 100.0 µg/ml.
The test system of a further series is Trichophyton rubrum. Briefly: Antimicrobial activity against Trichophyton rubrum NBRC5467 at 100 microg/ml incubated for 20 hrs by liquid microculture method. It is filed as functional, organism-based. The note with it: dose 100.0 µg/ml.
The next series concerns Saccharomyces cerevisiae. Briefly: Antimicrobial activity against Saccharomyces cerevisiae S100 at 100 microg/ml incubated for 20 hrs by liquid microculture method. The series is classed as functional, organism-based. The following applies: dose 100.0 µg/ml.
The nature of series [3]: Cytotoxicity against mouse P388 cells at 100 uM. The series is classed as toxicity, cell-based.
Series [4] deals with Trypanosoma cruzi. Briefly: Antitrypanosomal activity against Trypanosoma cruzi epimastigote assessed as inhibition of proliferation by measuring cellular ATP level incubated for 24 hrs by Cell Titer-Glo 2.0 assay. It is filed as functional, organism-based.
Series [5] deals with Trypanosoma cruzi. Briefly: Antitrypanosomal activity against Trypanosoma cruzi Tulahuen amastigotes infected in human HT-1080 cells assessed as inhibition of parasite growth incubated for 3 days by light microscopic analysis. It is filed as functional, organism-based. The following applies: HT-1080, 72 h.

Each structure is given as a SMILES string. Active and inactive are the calls of the source. No cut-off for these calls is given here.

On to `C\C(=C/C=C/C=C/[C@H]1[C@@H](C)[C@H](O)[C@@H](O)[C@H]2[C@H](O)[C@@H](C)C[C@@H](C)[C@H]12)C(=O)O`, for which the outcome (in the series on Kocuria rhizophila; in the series with Staphylococcus aureus; in the series with Escherichia coli; in series [1]; in the series with Candida albicans; in series [2]) was inactive. In addition, the result in the series on Trichophyton rubrum and in the series on Saccharomyces cerevisiae was inactive. In [3], the Activity result is reported as “Non-Toxic”. The half-inhibitory concentration (IC50) (commonly the concentration that gives 50% inhibition) in the series on Trypanosoma cruzi [4] was determined as 46 µM; in the series on Trypanosoma cruzi [5] it was 27 µM.
